Results published in the supplement of paper PMC12490022.
± gives the uncertainty stated by the source.

Tested on: ozone
Experiment: apparent second-order rate constant for reaction with ozone (kapp,O3) (M-1 s-1); higher = faster oxidation by ozone
Settings: pH 7; temperature: 22 C; OH radical scavenger: tBuOH 80 mM; phosphate 4 mM
Procedure: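 Apparent second-order rate constants for reaction with ozone at pH 7 were determined by multicompound competition kinetics. Mixtures of targets and competitors (10 ug/L each) were ozonated in 4 mM phosphate buffer, pH 7, with 80 mM tBuOH as OH-radical scavenger, at 22 ± 1 °C. Peak-area abatement was measured by HPLC-HRMS/MS and k was derived from ln-ln slopes against competitors with known k (R2 > 0.9, >= 10 points, slope 0.1-10). Experiments were run in triplicate on 3 days; the value is the mean over valid competitors ± SD.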

Row | Compound | apparent second-order rate constant
1 | CNCCCC1(c2ccc(F)cc2)OCc2cc(C#N)ccc21 (stereo not drawn) [N-Desmethylcitalopram] | 532 ± 28
2 | CCC1OC(=O)C(C)C(OC2CC(C)(OC)C(O)C(C)O2)C(C)C(OC2OC(C)CC(NC)C2O)C(C)(OC)CC(C)C(=O)C(C)C(O)C1(C)O (stereo not drawn) [N-Desmethylclarithromycin] | 6500 ± 520
3 | CNCCC(c1ccccc1)c1ccccn1 (stereo not drawn) [N-Desmethylpheniramine] | 975 ± 49
4 | CC(C)c1nc(NS(C)(=O)=O)nc(-c2ccc(F)cc2)c1C=CC(O)CC(O)CC(=O)O (stereo not drawn) [N-Desmethylrosuvastatin] | 26000 ± 2800
5 | CNCC(c1ccc(OC)cc1)C1(O)CCCCC1 (stereo not drawn) [N-Desmethylvenlafaxine] | 993 ± 55
6 | N#Cc1ccc2c(c1)COC2(CCCN)c1ccc(F)cc1 (stereo not drawn) [N-Didesmethylcitalopram] | 34.3 ± 2.1
7 | CNCC(CC(=O)O)CC(C)C (stereo not drawn) [N-Methylpregabalin] | 143 ± 7.6
8 | COC(=O)C(C)c1ccc2cc(OC)ccc2c1 (stereo not drawn) [Naproxen methyl ester] | 278000 ± 25000
9 | COc1ccc2cc(C(C)C(=O)O)ccc2c1 (stereo not drawn) [Naproxen] | 500000 ± 46000
10 | Cc1ccnc2c1NC(=O)c1cccnc1N2C1CC1 [Nevirapine] | 86 ± 9
11 | CN1CCCC1c1cccnc1 (stereo not drawn) [Nicotine] | 332000 ± 30000
12 | COc1ccc2c3c1OC1C(O)C=CC4C(C2)NCCC341 (stereo not drawn) [Norcodeine] | 2.68e+06 ± 51000
13 | C#CCNC(C)Cc1ccccc1 (stereo not drawn) [Nordeprenyl] | 14000 ± 1200
14 | CC(N)C(O)c1ccccc1 (stereo not drawn) [Norephedrine] | 45.5 ± 2.3
15 | NCCC(Oc1ccc(C(F)(F)F)cc1)c1ccccc1 (stereo not drawn) [Norfluoxetine] | 42 ± 2.5
16 | NC1(c2ccccc2Cl)CCCCC1=O (stereo not drawn) [Norketamine] | 37.5 ± 2.5
17 | c1ccc2c(c1)Cc1ccccc1N1CCNCC21 (stereo not drawn) [Normianserin] | 570000 ± 48000

Row | Compound | apparent second-order rate constant
18 | c1cncc(C2CCCN2)c1 (stereo not drawn) [Nornicotine] | 6350 ± 520
19 | CCOC(=O)c1c(COCC(=O)O)nc(C)c(C(=O)OC)c1-c1ccccc1Cl [O-Des[2-aminoethyl]-O-carboxymethyl-dehydroamlodipine] | 0.401 ± 0.014
20 | Cc1cccc(C)c1NC(=O)CN1CCN(CC(O)CO)CC1 (stereo not drawn) [O-Desarylranolazine] | 570000 ± 48000
21 | CC(C(=O)O)c1ccc2cc(O)ccc2c1 (stereo not drawn) [O-Desmethylnaproxen] | 6.6e+06 ± 500000
22 | CN(C)CC(c1ccc(O)cc1)C1(O)CCCCC1 (stereo not drawn) [O-Desmethylvenlafaxine] | 2.09e+06 ± 170000
23 | CCC(CC)OC1C=C(C(=O)O)CC(N)C1NC(C)=O (stereo not drawn) [Oseltamivir acid] | 87000 ± 7700
24 | CCOC(=O)C1=CC(OC(CC)CC)C(NC(C)=O)C(N)C1 (stereo not drawn) [Oseltamivir] | 6130 ± 510
25 | O=c1nc2[nH][nH]cc-2c(=O)[nH]1 [Oxypurinol] | 4 ± 2.5
26 | COc1ccnc(CS(=O)c2nc3ccc(OC(F)F)cc3[nH]2)c1OC (stereo not drawn) [Pantoprazole] | 108 ± 5.6
27 | CC(=O)Nc1ccc(O)c(SCC(NC(=O)CCC(N)C(=O)O)C(=O)NCC(=O)O)c1 (stereo not drawn) [Paracetamol-glutathione] | 1.1e+07 ± 2.4e+06
28 | CC(=O)Nc1ccc(OS(=O)(=O)O)cc1 [Paracetamol-sulfate] | 3.3 ± 0.3
29 | CC(=O)Nc1ccc(O)cc1 [Paracetamol] | 2.4e+06 ± 180000
30 | C#CC[N+](C)([O-])Cc1ccccc1 (stereo not drawn) [Pargyline-N-oxide] | 68 ± 8
31 | C[N+](C)([O-])CCC(c1ccccc1)c1ccccn1 (stereo not drawn) [Pheniramine-N-oxide] | 2.4 ± 0.3
32 | CN(C)CCC(c1ccccc1)c1ccccn1 (stereo not drawn) [Pheniramine] | 17600 ± 1700
33 | CNCC(O)c1cccc(OS(=O)(=O)O)c1 (stereo not drawn) [Phenylephrine-3-O-sulfate] | 2890 ± 220
